The source of these data is patent US8716326B2, “Isoindolinone derivatives, preparation method thereof and a pharmaceutical composition comprising same” (Korea Research Institute of Chemical Technology, priority 2009, dated 2014).

The test system of this assay is Runx2. As to the kind of experiment: Runx2 activity, 6xOSE2-Luc luciferase reporter in transfected C2C12 cells. Format: cell-based, Mouse. The settings on record: Mus musculus, 24 hrs, read-out: luciferase activity relative to control set as 1. The protocol:
Mouse premyoblast cell (C2C12 cell) was transfected using receptor vector 6xOSE2-Luc in order to investigate the activity of the amide compound of the present invention on Runx2.
Specifically, the receptor vector 6xOSE2-Luc was prepared by inserting an artificial promoter linked by six tandem copies of the OSE2 (osteoblast specific element-2) into vector pGL3 (Promega; Madison, Wis., U.S.A.), and then, cloned into the C2C12 cell to be transfected (Kim et al., Journal of Cellular Biochemistry, 91: 1239-1247, 2004). The OSE2 is the binding site of Runx2 in the promoter of osteocalcin which is a bone marker.
C2C12 cells (5,000 cells/well) were plated onto 96-well plates using 10% FBS (fetal bovine serum; Hyclone)-containing DMEM (Dulbecco's Modified Eagle's Medium), the medium was replaced with 5% FBS-containing DMEM after 24 hrs, and treated with each of the amide compounds obtained in Examples 1 to 94 at various concentrations of 2.5 μM, 5.0 μM, 10 μM, and 20 μM. As a control, dimethyl sulfoxide (DMSO) vehicle was applied to the cell in an amount same as that of the amide compound. After 24 hrs, the luciferase activity in the cell lysate was measured by using Dual-Luciferase Reporter Assay System (Promega). The luciferase activity of the amide compound of the present invention was calculated as a value relative to that observed for the control which was set as 1.

Consider `CC(=O)Nc1cccc(-c2cccc3c2CN(Cc2ccc(C(=O)Nc4ccccc4N)cc2)C3=O)c1` [Example 23, N-(2-aminophenyl)-4-[4-(3-acetamidophenyl)-1-oxo-2,3-dihydro-1H-isoindol-2-yl]methylbenzamide], for which the fold induction at 2.5 µM was 3.9, the fold induction at 5 µM was determined as 5.1, the fold induction at 10 µM amounted to 18.1 and the fold induction at 20 µM was found to be 33.2.

Take `COc1ccc(-c2cccc3c2CN(Cc2ccc(C(=O)Nc4ccccc4N)cc2)C3=O)cc1F` [Example 24, N-(2-aminophenyl)-4-((4-(3-fluoro-4-methoxyphenyl)-1-oxoisoindolin-2-yl)methyl)benzamide]: the fold induction at 2.5 µM came out at 11.8, the fold induction at 5 µM came out at 17.3, the fold induction at 10 µM amounted to 19.6 and the fold induction at 20 µM is 21.2.

Take `Nc1ccccc1NC(=O)c1ccc(CN2Cc3c(cccc3-c3ccc(-c4ccccc4)cc3)C2=O)cc1` [Example 25, N-(2-aminophenyl)-4-[1-oxo-4-(4-phenylphenyl)-2,3-dihydro-1H-isoindol-2-yl]methylbenzamide]: the fold induction at 2.5 µM came to 6.8, the fold induction at 5 µM is 11.3, the fold induction at 10 µM worked out at 17.9 and the fold induction at 20 µM came to 19.7.

Turning to `NC(=O)c1cccc(-c2cccc3c2CN(Cc2ccc(C(=O)Nc4ccccc4N)cc2)C3=O)c1` [Example 26, 3-[2-(4-[(2-aminophenyl)carbamoyl]phenylmethyl)-1-oxo-2,3-dihydro-1H-isoindol-4-yl]benzamide], the fold induction at 2.5 µM turned out to be 1.6, the fold induction at 5 µM is 2.3, the fold induction at 10 µM turned out to be 4.4 and the fold induction at 20 µM came out at 18.4.

Turning to `Cc1ccc(-c2cccc3c2CN(Cc2ccc(C(=O)Nc4ccccc4N)cc2)C3=O)cc1F` [Example 27, N-(2-aminophenyl)-4-((4-(3-fluoro-4-methylphenyl)-1-oxoisoindolin-2-yl)methyl)benzamide], the fold induction at 2.5 µM stood at 9.9, the fold induction at 5 µM amounted to 17.5, the fold induction at 10 µM came to 22.5 and the fold induction at 20 µM stood at 20.3.

On to `CC(C)(C)c1ccc(-c2cccc3c2CN(Cc2ccc(C(=O)Nc4ccccc4N)cc2)C3=O)cc1` [Example 28, 4-((4-(4-tert-butylphenyl)-1-oxoisoindolin-2-yl)methyl)-N-(2-aminophenyl)benzamide], for which the fold induction at 2.5 µM came to 4.6, the fold induction at 5 µM stood at 7.7, the fold induction at 10 µM is 14.3 and the fold induction at 20 µM came out at 23.7.

`Nc1ccccc1NC(=O)c1ccc(CN2Cc3c(cccc3-c3ccc(Oc4ccccc4)cc3)C2=O)cc1` [Example 29, N-(2-aminophenyl)-4-((1-oxo-4-(4-phenoxyphenyl)isoindolin-2-yl)methyl)benzamide]: the fold induction at 2.5 µM was found to be 3.4, the fold induction at 5 µM is 5.6, the fold induction at 10 µM worked out at 10.5 and the fold induction at 20 µM was 10.

As for `Nc1ccccc1NC(=O)c1ccc(CN2Cc3c(cccc3-c3ccc(F)cc3)C2=O)cc1` [Example 30, N-(2-aminophenyl)-4-((4-(4-fluorophenyl)-1-oxoisoindolin-2-yl)methyl)benzamide], the fold induction at 2.5 µM turned out to be 13.5, the fold induction at 5 µM turned out to be 20.5, the fold induction at 10 µM was 28.8 and the fold induction at 20 µM was found to be 30.4.

Regarding `COc1cc2c(c(-c3ccccc3)c1OC)CN(CCCCCC(=O)Nc1ccccc1N)C2=O` [Example 31, N-(2-aminophenyl)-6-(5,6-dimethoxy-1-oxo-4-phenylisoindolin-2-yl)hexanamide], the fold induction at 2.5 µM was 12.2, the fold induction at 5 µM stood at 21.2, the fold induction at 10 µM worked out at 26.2 and the fold induction at 20 µM amounted to 29.3.

Consider `COc1cc2c(c(-c3cc(C)cc(C)c3)c1OC)CN(CCCCCC(=O)Nc1ccccc1N)C2=O` [Example 32, N-(2-aminophenyl)-6-(5,6-dimethoxy-4-(3,5-dimethylphenyl)-1-oxoisoindolin-2-yl)hexanamide], for which the fold induction at 2.5 µM worked out at 4.4, the fold induction at 5 µM came to 9.2, the fold induction at 10 µM turned out to be 18.5 and the fold induction at 20 µM was determined as 23.8.

Take `COc1cc2c(c(-c3cccnc3)c1OC)CN(CCCCCC(=O)Nc1ccccc1N)C2=O` [Example 33, N-(2-aminophenyl)-6-(5,6-dimethoxy-1-oxo-4-(pyridin-3-yl)isoindolin-2-yl)hexanamide]: the fold induction at 2.5 µM stood at 1.8, the fold induction at 5 µM is 3.4, the fold induction at 10 µM is 10 and the fold induction at 20 µM worked out at 29.

For `COc1cc2c(c(-c3cc(F)cc(F)c3)c1OC)CN(CCCCCC(=O)Nc1ccccc1N)C2=O` [Example 34, N-(2-aminophenyl)-6-(4-(3,5-difluorophenyl)-5,6-dimethoxy-1-oxoisoindolin-2-yl)hexanamide], the fold induction at 2.5 µM was found to be 3.7, the fold induction at 5 µM amounted to 7.4, the fold induction at 10 µM is 18 and the fold induction at 20 µM came out at 23.

As for `COc1cc2c(c(-c3ccc(C(F)(F)F)cc3)c1OC)CN(CCCCCC(=O)Nc1ccccc1N)C2=O` [Example 35, N-(2-aminophenyl)-6-(4-(4-(trifluoromethyl)phenyl)-5,6-dimethoxy-1-oxoisoindolin-2-yl)hexanamide], the fold induction at 2.5 µM is 2.9, the fold induction at 5 µM is 6.7, the fold induction at 10 µM was 14.2 and the fold induction at 20 µM is 22.3.

`Nc1ccccc1NC(=O)CCCCCN1Cc2c(Br)cccc2C1=O` [Example 36, N-(2-aminophenyl)-6-(4-bromo-1-oxoisoindolin-2-yl)hexanamide]: the fold induction at 2.5 µM came out at 2.1, the fold induction at 5 µM was 3, the fold induction at 10 µM was found to be 8 and the fold induction at 20 µM was found to be 13.

With `Nc1ccccc1NC(=O)CCCCCN1Cc2c(cccc2-c2ccccc2)C1=O` [Example 37, N-(2-aminophenyl)-6-(1-oxo-4-phenylisoindolin-2-yl)hexanamide], the fold induction at 2.5 µM came out at 1.6, the fold induction at 5 µM was 2.6, the fold induction at 10 µM stood at 6.8 and the fold induction at 20 µM worked out at 12.5.

As for `Nc1ccccc1NC(=O)CCCCCN1Cc2c(cccc2-c2cccnc2)C1=O` [Example 38, N-(2-aminophenyl)-6-(1-oxo-4-(pyridin-3-yl)isoindolin-2-yl)hexanamide], the fold induction at 2.5 µM is 3, the fold induction at 5 µM came to 8.2, the fold induction at 10 µM turned out to be 23 and the fold induction at 20 µM is 43.3.

For the compound `COc1ccc(-c2cccc3c2CN(CCCCCC(=O)NO)C3=O)c(OC)c1` [Example 39, N-hydroxy-6-(4-(2,4-dimethoxyphenyl)-1-oxoisoindolin-2-yl)hexanamide], the fold induction at 2.5 µM is 1.4, the fold induction at 5 µM is 2.1, the fold induction at 10 µM is 5.3 and the fold induction at 20 µM worked out at 25.6.

For `COc1ccc(-c2cccc3c2CN(CCCCCC(=O)NO)C3=O)cc1OC` [Example 40, N-hydroxy-6-(4-(3,4-dimethoxyphenyl)-1-oxoisoindolin-2-yl)hexanamide], the fold induction at 2.5 µM turned out to be 1.1, the fold induction at 5 µM was determined as 1.1, the fold induction at 10 µM came to 1.7 and the fold induction at 20 µM was determined as 1.6.

For the compound `Cc1cc(C)cc(-c2cccc3c2CN(CCCCCC(=O)NO)C3=O)c1` [Example 41, N-hydroxy-6-(4-(3,5-dimethylphenyl)-1-oxoisoindolin-2-yl)hexanamide], the fold induction at 2.5 µM came out at 2.5, the fold induction at 5 µM was found to be 4.6, the fold induction at 10 µM came out at 12.4 and the fold induction at 20 µM was determined as 28.

Turning to `O=C(CCCCCN1Cc2c(cccc2-c2cc(F)cc(F)c2)C1=O)NO` [Example 42, 6-(4-(3,5-difluorophenyl)-1-oxoisoindolin-2-yl)-N-hydroxyhexanamide], the fold induction at 2.5 µM turned out to be 3.1, the fold induction at 5 µM is 10.8, the fold induction at 10 µM worked out at 22.3 and the fold induction at 20 µM is 17.9.

Turning to `O=C(CCCCCN1Cc2c(cccc2-c2cccnc2)C1=O)NO` [Example 43, N-hydroxy-6-(1-oxo-4-(pyridin-3-yl)isoindolin-2-yl)hexanamide], the fold induction at 2.5 µM is 1.1, the fold induction at 5 µM is 1.3, the fold induction at 10 µM was 1.8 and the fold induction at 20 µM amounted to 3.2.

With `O=C(CCCCCN1Cc2c(cccc2-c2ccc(C(F)(F)F)cc2)C1=O)NO` [Example 44, 6-(4-(4-(trifluoromethyl)phenyl)-1-oxoisoindolin-2-yl)-N-hydroxyhexanamide], the fold induction at 2.5 µM was determined as 1.2, the fold induction at 5 µM worked out at 1.2, the fold induction at 10 µM is 1.3 and the fold induction at 20 µM was determined as 1.4.
